In brackets after ≈: the same amount, converted by molar mass.
Assays:
Candida krusei [1] = experiment: In vitro broth dilution MFC, Candida krusei; type: cell-based; conditions: 16 strains
Method: (§1) The in vitro antifungal activity tests were performed via conventional broth dilution methods in Sabouraud dextrose broth ("SDB") medium and Eagles Minimum Essential Medium ("EMEM") against a large number of fungi. Minimum Inhibitory Concentrations ("MICs") were measured after 24, 48 and 72 hour tests. In many cases, Minimum Fungicidial Concentrations ("MFCS") were measured after 48 and 72 hours.

Aspergillus [2] = experiment: In vitro broth dilution MFC, Aspergillus; type: cell-based, Aspergillus flavus, fumigatus and other species; conditions: 37 strains
Method: as §1

Cryptococcus neoformans [3] = experiment: In vitro broth dilution MIC, Cryptococcus neoformans; type: cell-based; conditions: 3 strains
Method: as §1

Candida glabrata [4] = experiment: In vitro broth dilution MIC, Candida glabrata; type: cell-based; conditions: 9 strains; for MIC90: Nakaseomyces glabratus, read-out: MIC 90 (Minimum Inhibitory Concentrations for 90% of the strains)
Method: as §1

Candida albicans [5] = experiment: In vitro broth dilution MIC, Candida albicans; type: cell-based; conditions: 26 strains; for MIC90: read-out: MIC 90 (Minimum Inhibitory Concentrations for 90% of the strains)
Method: as §1

Dermatophytes [6] = experiment: In vitro broth dilution MFC, dermatophytes; type: cell-based, T. rubrum, T. mentagrophytes, and T. tonsurans; conditions: 6 strains
Method: as §1

Aspergillus [7] = experiment: In vitro broth dilution MIC, Aspergillus; type: cell-based, Aspergillus flavus, fumigatus and other species; conditions: for MIC90: read-out: MIC 90 (Minimum Inhibitory Concentrations for 90% of the strains)
Method: as §1

Cryptococcus neoformans [8] = experiment: In vitro broth dilution MFC, Cryptococcus neoformans; type: cell-based; conditions: 3 strains
Method: as §1

Candida albicans [9] = conditions: 26 strains
Method: as §1

Candida glabrata [10] = experiment: In vitro broth dilution MFC, Candida glabrata; type: cell-based; conditions: 9 strains
Method: as §1

Candida krusei [11] = experiment: In vitro broth dilution MIC, Candida krusei; type: cell-based; conditions: 16 strains
[12] = test system: Candida tropicalis & stellatoidea; conditions: 5 strains
Method: as §1

Dermatophytes [13] = experiment: In vitro broth dilution MIC, dermatophytes; type: cell-based, T. rubrum, T. mentagrophytes, and T. tonsurans; conditions: 6 strains
[14] = test system: Candida tropicalis & stellatoidea; experiment: In vitro broth dilution MIC, Candida tropicalis & stellatoidea; type: cell-based; conditions: 5 strains
Method: as §1

[15] = test system: cytochrome P-450 liver drug metabolizing enzymes; experiment: Induction of cytochrome P-450 liver drug metabolizing enzymes in an in vivo rat model; conditions: after oral administration
[16] = Serum levels, serum half lives and tissue distribution following oral dosing; type: in vivo, mice, rats, dogs and monkeys

| SMILES | Percentage of strains with MFCs ≤1 mcg/ml (Candida krusei [1]) [PERCENTAGE] | Percentage of strains with MFCs ≤1 mcg/ml (Aspergillus [2]) [PERCENTAGE] | MIC 90 (Minimum Inhibitory Concentrations for 90% of the strains) (Cryptococcus neoformans [3]) | MIC90 (Candida glabrata [4]) [mg/L] | MIC90 (Candida albicans [5]) [mg/L] | Percentage of strains with MFCs ≤1 mcg/ml (Dermatophytes [6]) [PERCENTAGE] | MIC90 (Aspergillus [7]; Aspergillus, 37 strains) [mg/L] | also measured |
| --- | --- | --- | --- | --- | --- | --- | --- | --- |
| CC[C@H]([C@H](C)O)n1ncn(-c2ccc(N3CCN(c4ccc(OC[C@@H]5CO[C@@](Cn6cncn6)(c6ccc(F)cc6F)C5)cc4)CC3)cc2)c1=O | 88 | 50 | .05 MCG/ML | 28.8 (≈ 41.1 µM) | 0.274 (≈ 0.391 µM) | 67 | 0.122 (≈ 0.174 µM) | – |
| OC(Cn1cncn1)(Cn1cncn1)c1ccc(F)cc1F [FLZ, fluconazole] | 0 | 0 | – | 29.3 (≈ 95.7 µM) | 0.887 (≈ 2.9 µM) | 0 | 29.9 (≈ 97.6 µM) | Percentage of strains with MFCs ≤1 mcg/ml (Cryptococcus neoformans [8]): 0 PERCENTAGE; Percentage of strains with MFCs ≤1 mcg/ml (Candida albicans [9]): 100 PERCENTAGE; Percentage of strains with MFCs ≤1 mcg/ml (Candida glabrata [10]): 0 PERCENTAGE; Percentage of strains with MICs ≤1 mcg/ml (Candida krusei [11]): 0 PERCENTAGE; MIC90 (Candida krusei [11]; Pichia kudriavzevii, read-out: MIC 90 (Minimum Inhibitory Concentrations for 90% of the strains)): 29.9 mg/L (≈ 97.6 µM); Percentage of strains with MICs ≤1 mcg/ml (Cryptococcus neoformans [3]): 0 PERCENTAGE; MIC90 (Cryptococcus neoformans [3]; read-out: MIC 90 (Minimum Inhibitory Concentrations for 90% of the strains)): 25.9 mg/L (≈ 84.6 µM); Percentage of strains with MICs ≤1 mcg/ml (Candida glabrata [4]): 0 PERCENTAGE; Percentage of strains with MFCs ≤1 mcg/ml [12]: 100 PERCENTAGE; Percentage of strains with MICs ≤1 mcg/ml (Candida albicans [5]): 100 PERCENTAGE; Percentage of strains with MICs ≤1 mcg/ml (Dermatophytes [13]): 100 PERCENTAGE; Percentage of strains with MICs ≤1 mcg/ml [14]: 100 PERCENTAGE; MIC90 ([14]; Candida tropicalis, read-out: MIC 90 (Minimum Inhibitory Concentrations for 90% of the strains)): 0.917 mg/L (≈ 2.99 µM); Percentage of strains with MICs ≤1 mcg/ml (Aspergillus [7]; Aspergillus, 37 strains): 0 PERCENTAGE; MIC (Aspergillus [7]; SDB, 37 species of Aspergillus, read-out: geometric mean MICs): ≥ 32 mg/L |
| CCC(C(C)O)n1ncn(-c2ccc(N3CCN(c4ccc(OCC5COC(Cn6cncn6)(c6ccc(F)cc6F)C5)cc4)CC3)cc2)c1=O (centres unmarked) [drawing 21] | – | – | – | – | – | – | – | induction of various cytochrome P-450 liver drug metabolizing enzymes [15]: not inducers; serum half lives ([16]; following O.D. dosing): very long serum half lives; serum levels compared to azoles of similar structure ([16]; mice, rats, dogs and monkeys, oral dosing with a methyl cellulose formulation): consistently higher serum levels |
| CCC(C(C)O)n1ncn(-c2ccc(N3CCN(c4ccc(OCC5COC(Cn6cncn6)(c6ccc(F)cc6F)C5)cc4)CC3)cc2)c1=O (centres unmarked) [drawing 23] | 94 | 62 | .007 MCG/ML | – | – | 83 | – | – |
| CCC(C(C)O)n1ncn(-c2ccc(N3CCN(c4ccc(OCC5COC(Cn6cncn6)(c6ccc(F)cc6F)C5)cc4)CC3)cc2)c1=O (centres unmarked) [drawing 24] | 100 | 89 | – | – | – | 100 | – | – |
